pIC50: −log10 of the molar value.

One assay deals with human Cav2.2 (Homo sapiens, UniProt Q00975). Put plainly: Assessment of calcium channel activity using FLIPR (Ca2+ influx in IMR32 cells). In kind it is cell-based.
Sequence of human Cav2.2 (Q00975 whole entry): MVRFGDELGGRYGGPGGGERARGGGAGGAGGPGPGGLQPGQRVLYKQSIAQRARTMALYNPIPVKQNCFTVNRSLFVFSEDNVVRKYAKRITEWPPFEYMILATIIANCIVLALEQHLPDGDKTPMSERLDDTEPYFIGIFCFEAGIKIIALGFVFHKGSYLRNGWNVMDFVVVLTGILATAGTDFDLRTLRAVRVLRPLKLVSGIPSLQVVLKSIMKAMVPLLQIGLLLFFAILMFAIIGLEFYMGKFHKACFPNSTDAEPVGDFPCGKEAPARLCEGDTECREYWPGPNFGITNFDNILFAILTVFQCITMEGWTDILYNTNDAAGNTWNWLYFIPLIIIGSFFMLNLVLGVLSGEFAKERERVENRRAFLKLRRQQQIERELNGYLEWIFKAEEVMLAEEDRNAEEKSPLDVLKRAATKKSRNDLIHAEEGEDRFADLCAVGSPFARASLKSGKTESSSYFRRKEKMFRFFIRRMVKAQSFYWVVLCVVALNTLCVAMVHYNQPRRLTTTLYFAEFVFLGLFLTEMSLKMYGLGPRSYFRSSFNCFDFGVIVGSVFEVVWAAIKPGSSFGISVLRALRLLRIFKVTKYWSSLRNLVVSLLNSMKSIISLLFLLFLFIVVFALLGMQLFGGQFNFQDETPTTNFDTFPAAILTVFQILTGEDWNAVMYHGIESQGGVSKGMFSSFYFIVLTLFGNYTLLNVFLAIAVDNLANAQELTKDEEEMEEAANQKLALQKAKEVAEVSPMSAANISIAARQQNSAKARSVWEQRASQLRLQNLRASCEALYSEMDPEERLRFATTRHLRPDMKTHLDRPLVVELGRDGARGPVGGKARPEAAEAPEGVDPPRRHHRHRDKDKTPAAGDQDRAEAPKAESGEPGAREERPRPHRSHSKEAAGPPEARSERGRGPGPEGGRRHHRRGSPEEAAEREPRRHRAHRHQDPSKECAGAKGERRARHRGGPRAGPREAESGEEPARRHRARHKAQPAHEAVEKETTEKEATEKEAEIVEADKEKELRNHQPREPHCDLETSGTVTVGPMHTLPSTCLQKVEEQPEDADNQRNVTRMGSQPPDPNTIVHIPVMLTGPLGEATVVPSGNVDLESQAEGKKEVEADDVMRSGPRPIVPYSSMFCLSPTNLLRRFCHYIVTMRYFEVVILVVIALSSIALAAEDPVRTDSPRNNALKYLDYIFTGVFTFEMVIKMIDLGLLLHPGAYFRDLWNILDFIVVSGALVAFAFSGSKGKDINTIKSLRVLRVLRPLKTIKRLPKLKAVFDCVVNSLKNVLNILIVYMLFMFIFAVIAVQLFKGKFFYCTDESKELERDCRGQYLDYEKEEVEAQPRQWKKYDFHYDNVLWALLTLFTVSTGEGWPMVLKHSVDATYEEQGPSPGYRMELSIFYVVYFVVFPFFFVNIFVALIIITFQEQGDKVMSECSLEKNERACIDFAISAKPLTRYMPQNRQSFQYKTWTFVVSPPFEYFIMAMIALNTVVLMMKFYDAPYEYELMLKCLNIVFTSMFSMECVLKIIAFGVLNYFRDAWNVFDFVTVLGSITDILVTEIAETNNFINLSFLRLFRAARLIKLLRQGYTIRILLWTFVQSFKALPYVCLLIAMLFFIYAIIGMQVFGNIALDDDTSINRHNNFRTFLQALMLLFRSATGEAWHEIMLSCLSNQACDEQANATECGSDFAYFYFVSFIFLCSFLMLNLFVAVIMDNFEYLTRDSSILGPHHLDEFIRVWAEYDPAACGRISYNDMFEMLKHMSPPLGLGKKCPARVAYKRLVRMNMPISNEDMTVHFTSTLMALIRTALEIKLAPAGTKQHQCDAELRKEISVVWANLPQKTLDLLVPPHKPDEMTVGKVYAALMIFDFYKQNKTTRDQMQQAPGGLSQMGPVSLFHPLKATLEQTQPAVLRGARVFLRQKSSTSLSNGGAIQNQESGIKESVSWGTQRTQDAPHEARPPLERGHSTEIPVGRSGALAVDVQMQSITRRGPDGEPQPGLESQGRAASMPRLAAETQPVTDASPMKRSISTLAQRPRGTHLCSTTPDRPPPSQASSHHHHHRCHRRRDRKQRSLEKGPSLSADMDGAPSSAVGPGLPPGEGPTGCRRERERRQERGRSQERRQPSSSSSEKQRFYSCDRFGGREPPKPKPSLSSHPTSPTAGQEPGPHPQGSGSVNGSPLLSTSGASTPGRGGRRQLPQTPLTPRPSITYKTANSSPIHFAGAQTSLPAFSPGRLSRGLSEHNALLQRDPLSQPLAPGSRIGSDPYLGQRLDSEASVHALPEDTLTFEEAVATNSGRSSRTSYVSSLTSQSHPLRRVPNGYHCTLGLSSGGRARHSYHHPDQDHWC
Sequence of human Cav2.2 (P54289 25-956 partner limits assumed): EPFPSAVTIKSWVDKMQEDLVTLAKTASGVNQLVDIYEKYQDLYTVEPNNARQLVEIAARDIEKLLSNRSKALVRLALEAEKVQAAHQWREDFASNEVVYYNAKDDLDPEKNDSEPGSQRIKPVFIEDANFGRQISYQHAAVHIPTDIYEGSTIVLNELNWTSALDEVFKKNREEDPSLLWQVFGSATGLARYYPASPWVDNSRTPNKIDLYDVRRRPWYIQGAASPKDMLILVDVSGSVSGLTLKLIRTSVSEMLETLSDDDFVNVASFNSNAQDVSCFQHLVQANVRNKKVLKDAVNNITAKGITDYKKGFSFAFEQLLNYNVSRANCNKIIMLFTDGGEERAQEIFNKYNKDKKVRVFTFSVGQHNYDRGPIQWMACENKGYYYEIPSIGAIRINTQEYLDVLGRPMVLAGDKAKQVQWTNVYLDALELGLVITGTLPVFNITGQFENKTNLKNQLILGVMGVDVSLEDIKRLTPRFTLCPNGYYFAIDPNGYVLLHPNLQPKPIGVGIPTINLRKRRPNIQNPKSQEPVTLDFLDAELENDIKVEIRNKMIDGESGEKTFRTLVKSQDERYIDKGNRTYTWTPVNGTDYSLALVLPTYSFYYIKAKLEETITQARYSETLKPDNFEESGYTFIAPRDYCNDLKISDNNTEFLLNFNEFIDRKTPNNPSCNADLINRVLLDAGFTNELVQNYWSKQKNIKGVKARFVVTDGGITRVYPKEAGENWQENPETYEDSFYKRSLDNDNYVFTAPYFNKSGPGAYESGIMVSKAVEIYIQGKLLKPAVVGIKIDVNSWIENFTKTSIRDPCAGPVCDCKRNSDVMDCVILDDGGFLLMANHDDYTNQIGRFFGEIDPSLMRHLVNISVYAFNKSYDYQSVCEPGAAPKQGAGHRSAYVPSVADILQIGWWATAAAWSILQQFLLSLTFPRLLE
Sequence of human Cav2.2 (P54289 957-1103 partner limits assumed): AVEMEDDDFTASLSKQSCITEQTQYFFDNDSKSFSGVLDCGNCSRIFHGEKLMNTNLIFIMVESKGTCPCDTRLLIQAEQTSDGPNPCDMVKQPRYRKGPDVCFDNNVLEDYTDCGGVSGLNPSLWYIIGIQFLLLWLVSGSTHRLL
Sequence of human Cav2.2 (P54284 whole entry partner): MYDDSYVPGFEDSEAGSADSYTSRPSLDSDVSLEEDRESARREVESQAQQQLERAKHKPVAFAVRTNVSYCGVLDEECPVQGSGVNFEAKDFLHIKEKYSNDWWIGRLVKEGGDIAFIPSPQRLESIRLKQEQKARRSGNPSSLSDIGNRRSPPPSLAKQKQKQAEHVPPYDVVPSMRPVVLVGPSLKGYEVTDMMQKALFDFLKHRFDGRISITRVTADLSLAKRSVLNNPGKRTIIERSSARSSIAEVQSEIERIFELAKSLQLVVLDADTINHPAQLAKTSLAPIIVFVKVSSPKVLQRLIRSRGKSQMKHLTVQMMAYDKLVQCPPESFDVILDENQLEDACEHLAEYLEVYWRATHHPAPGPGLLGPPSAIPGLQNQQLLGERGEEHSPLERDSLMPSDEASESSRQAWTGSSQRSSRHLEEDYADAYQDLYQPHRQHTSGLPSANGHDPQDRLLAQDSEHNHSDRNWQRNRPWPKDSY
Settings: not given
On the procedure:
(i) In Vitro Methods—Assessment of Calcium Channel Activity Using FLIPR:
The IMR32 cells were maintained in MEM media containing 10% (v/v) FBS, 1% (v/v) antibiotic/antimitotic, 1% (v/v) sodium pyruvate and 1% (v/v) MEM NEAA. Following dissociation in 0.05% (v/v) trypsin/EDTA, cells were seeded into black 1×96-well plates (Corning Cellbind) at a density of 1−1.2×10^5 cells/well and incubated in the maintenance media above for 48 hours at 37° C. […] To determine the IC50 values, the percent inhibition of the compound at each concentration was determined relative to the activity in the absence of inhibitor, and data was fitted using non-linear regression sigmoidal dose response curve analysis with GraphPad Prism®.
For orientation: pIC50 means the negative decadic logarithm of the IC50, by convention in mol/L. Turning to `CC(C)NCC(=O)N[C@H]1CC[C@@H]2CN(c3ccc(C(F)(F)F)cc3)C[C@@H]21` [Example 761, N^2-isopropyl-N-{(3aR,4S,6aS)-2-[4-(trifluoromethyl)phenyl]octahydrocyclopenta[c]pyrrol-4-yl}glycinamide], the pIC50 was 5.44.
`Fc1ccc2[nH]c(CN[C@H]3CC[C@@H]4CN(c5ccc(C(F)(F)F)cc5)C[C@@H]43)cc2c1` [Example 615, (3aR,4S,6aS)-N-[(5-fluoro-1H-indol-2-yl)methyl]-2-[4-(trifluoromethyl)phenyl]octahydrocyclopenta[c]pyrrol-4-amine]: the pIC50 was 4.86.
On the same count and under the same terms, the figure for `O=C(N[C@H]1CC[C@@H]2CN(c3ccnc(C(F)(F)F)c3)C[C@@H]21)[C@@H]1C[C@@H](F)CN1` [Example 638, (4R)-4-fluoro-N-{(3aR,4S,6aS)-2-[2-(trifluoromethyl)pyridin-4-yl]octahydrocyclopenta[c]pyrrol-4-yl}-L-prolinamide] is below 4.52.
Turning to `CCCCc1nc(CN[C@H]2CC[C@@H]3CN(c4cccc(C(F)(F)F)n4)C[C@@H]32)c[nH]1` [Example 674, (3aR,4S,6aS)-N-[(2-butyl-1H-imidazol-4-yl)methyl]-2-[6-(trifluoromethyl)pyridin-2-yl]octahydrocyclopenta[c]pyrrol-4-amine], the pIC50 was 6.28.
Take `CCC[C@@H](C(=O)N[C@H]1CC[C@@H]2CN(S(=O)(=O)c3cccs3)C[C@@H]21)N(C)C(=O)OC(C)(C)C` [Example 531, tert-butyl methyl((S)-1-oxo-1-((3aR,4S,6aS)-2-(thiophen-2-ylsulfonyl)octahydrocyclopenta[c]pyrrol-4-ylamino)pentan-2-yl)carbamate]: the pIC50 was 5.46.
On the same count and under the same terms, next, `CC(C)(C)NC(=O)N[C@H]1CC[C@@H]2CN(c3cccc(OC(F)(F)F)c3)C[C@@H]21` [Example 779, 1-tert-butyl-3-{(3aR,4S,6aS)-2-[3-(trifluoromethoxy)phenyl]octahydrocyclopenta[c]pyrrol-4-yl}urea]: 5.73; `CN[C@H](C(=O)N[C@H]1CC[C@@H]2CN(c3cccc(C(F)(F)F)c3)C[C@@H]21)C(C)C` [Example 757, N^2-methyl-N-{(3aR,4S,6aS)-2-[3-(trifluoromethyl)phenyl]octahydrocyclopenta[c]pyrrol-4-yl}-L-valinamide]: 5.95; `Fc1ccc2[nH]c(CN[C@H]3CC[C@@H]4CN(c5ccc(C(F)(F)F)cn5)C[C@@H]43)cc2c1` [Example 614, (3aR,4S,6aS)-N-[(5-fluoro-1H-indol-2-yl)methyl]-2-[5-(trifluoromethyl)pyridin-2-yl]octahydrocyclopenta[c]pyrrol-4-amine]: 5.48.
With `O=C(N[C@H]1CC[C@@H]2CN(c3cccc(C(F)(F)F)n3)C[C@@H]21)[C@@H]1C[C@H](F)CN1` [Example 596, (4S)-4-fluoro-N-{(3aR,4S,6aS)-2-[6-(trifluoromethyl)pyridin-2-yl]octahydrocyclopenta[c]pyrrol-4-yl}-L-prolinamide], the pIC50 was 5.35.
On to `O=C(N[C@H]1CC[C@@H]2CN(c3cccc(C(F)(F)F)c3F)C[C@@H]21)[C@@H]1C[C@@H](F)CN1` [Example 623, (4R)-4-fluoro-N-{(3aR,4S,6aS)-2-[2-fluoro-3-(trifluoromethyl)phenyl]octahydrocyclopenta[c]pyrrol-4-yl}-L-prolinamide], for which the negative logarithm of the IC50 (pIC50) was 5.88.
As to `CN[C@@H](C)C(=O)N[C@H]1CC[C@@H]2CN(c3ccc(C(F)(F)F)cc3)C[C@@H]21` [Example 753, N^2-methyl-N-{(3aR,4S,6aS)-2-[4-(trifluoromethyl)phenyl]octahydrocyclopenta[c]pyrrol-4-yl}-L-alaninamide], the pIC50 is below 5.02.
Regarding `FC(F)(F)c1cccc(N2C[C@H]3CC[C@H](NCc4c[nH]c(-c5ccccc5)n4)[C@H]3C2)n1` [Example 688, (3aR,4S,6aS)-N-[(2-phenyl-1H-imidazol-4-yl)methyl]-2-[6-(trifluoromethyl)pyridin-2-yl]octahydrocyclopenta[c]pyrrol-4-amine], the pIC50 was 5.99.
Take `N#Cc1ccccc1N1C[C@H]2CC[C@H](NC(=O)[C@@H]3C[C@@H](F)CN3)[C@H]2C1` [Example 651, (4R)-N-[(3aR,4S,6aS)-2-(2-cyanophenyl)octahydrocyclopenta[c]pyrrol-4-yl]-4-fluoro-L-prolinamide]: the pIC50 was 4.83.
The same measure, in the same setting: the figure for `Cc1cccc(CN2C[C@@H]3CC[C@H](NC(=O)C(C4CCCCC4)C4CCCCC4)[C@@H]3C2)c1` [Example 61, 2,2-dicyclohexyl-N-[(3aS,4S,6aR)-2-(3-methylbenzyl)octahydrocyclopenta[c]pyrrol-4-yl]acetamide] is 6.07; for `CN[C@H](C(=O)N[C@H]1CC[C@@H]2CN(c3ccc(C(F)(F)F)cc3)C[C@@H]21)C(C)C` [Example 747, N^2-methyl-N-{(3aR,4S,6aS)-2-[4-(trifluoromethyl)phenyl]octahydrocyclopenta[c]pyrrol-4-yl}-L-valinamide] it is below 5.02.
`CN[C@@H](CC(C)(C)C)C(=O)N[C@H]1CC[C@@H]2CN(S(=O)(=O)c3ccc(C(F)(F)F)cc3)C[C@@H]21` [Example 415, N^2,4-dimethyl-N^1-((3aR,4S,6aS)-2-{[4-(trifluoromethyl)phenyl]sulfonyl}octahydrocyclopenta[c]pyrrol-4-yl)-L-leucinamide]: the pIC50 was 5.88.

Staying with this assay, now noted: read-out: IC50 (μM) or percent inhibition (* indicates 3 minute incubation, otherwise 60 minute); IC50; 60 minute pre-incubation with compound; IMR32 cells, 80 mM KCl depolarization.
The IC50 is the concentration needed to halve the response being measured. As for `O=S(=O)(N[C@@H]1CC[C@H]2CN(Cc3cccc(C(F)(F)F)c3)C[C@H]21)c1cccc(C(F)(F)F)c1` [Example 189, 3-(trifluoromethyl)-N-{(3aS,4R,6aR)-2-[3-(trifluoromethyl)benzyl]octahydrocyclopenta[c]pyrrol-4-yl}benzenesulfonamide], the IC50 was 1.01 µM.
`CC(C)C[C@H](NC(=O)OC(C)(C)C)C(=O)N[C@@H]1CC[C@H]2CN(Cc3cccc(C(F)(F)F)c3)C[C@H]21` (relative stereo) [Example 148, N^2-(tert-butyloxycarbonyl)-N^1-{(3aS*,4R*,6aR*)-2-[3-(trifluoromethyl)benzyl]octahydrocyclopenta[c]pyrrol-4-yl}-L-leucinamide]: the IC50 amounted to 0.83 µM.
Consider `COc1ccccc1CN1C[C@H]2CC[C@H](NC(=O)C(c3ccccc3)C(C)C)[C@H]2C1` (stereo partly drawn) [Example 94, N-[(3aR,4S,6aS)-2-(2-methoxybenzyl)octahydrocyclopenta[c]pyrrol-4-yl]-3-methyl-2-phenylbutanamide], for which the IC50 is 2.33 µM.
In the case of `Cc1ccc(CN2C[C@@H]3CC[C@H](NC(=O)C(C4CCCCC4)C4CCCCC4)[C@@H]3C2)cc1` [Example 62, 2,2-dicyclohexyl-N-[(3aS,4S,6aR)-2-(4-methylbenzyl)octahydrocyclopenta[c]pyrrol-4-yl]acetamide], the IC50 is 1.64 µM.
For the compound `CC(C)C[C@H](NS(=O)(=O)c1ccccc1)C(=O)N[C@@H]1CC[C@H]2CN(Cc3cccc(C(F)(F)F)c3)C[C@H]21` [Example 523, N^2-(phenylsulfonyl)-N^1-{(3aS,4R,6aR)-2-[3-(trifluoromethyl)benzyl]octahydrocyclopenta[c]pyrrol-4-yl}-L-leucinamide], the IC50 came out at 4.44 µM.
Same read-out and setting: next, `CC(C)C[C@H](NC(=O)OC1CCCC1)C(=O)N[C@@H]1CC[C@H]2CN(Cc3cccc(C(F)(F)F)c3)C[C@H]21` [Example 179, cyclopentyl(S)-4-methyl-1-oxo-1-((3aS,4R,6aR)-2-(3-(trifluoromethyl)benzyl)octahydrocyclopenta[c]pyrrol-4-ylamino)pentan-2-ylcarbamate]: 0.89 µM; `CN[C@@H](CC(C)C)C(=O)N[C@@H]1CC[C@H]2CN(Cc3ccccc3)C[C@H]21` [Example 165, N^1-[(3aS,4R,6aR)-2-benzyloctahydrocyclopenta[c]pyrrol-4-yl]-N^2-methyl-L-leucinamide]: above 30 µM; `O=C(N[C@@H]1CC[C@H]2CN(Cc3ccc(F)cc3)C[C@H]21)[C@@H]1CCCCN1` [Example 368, (2S)-N-[(3aS,4R,6aR)-2-(4-fluorobenzyl)octahydrocyclopenta[c]pyrrol-4-yl]piperidine-2-carboxamide]: 12.4 µM.
On the same count and under the same terms, next, `CC(C)C[C@H](N)C(=O)N[C@@H]1CC[C@H]2CN(Cc3cccc(C(F)(F)F)c3)C[C@H]21` (relative stereo) [Example 161, N^1-{(3aS*,4R*,6aR*)-2-[3-(trifluoromethyl)benzyl]octahydrocyclopenta[c]pyrrol-4-yl}-L-leucinamide]: 3.89 µM.
For `CC(C)C[C@H](NS(=O)(=O)CC(C)C)C(=O)N[C@@H]1CC[C@H]2CN(Cc3cccc(C(F)(F)F)c3)C[C@H]21` [Example 173, N^2-(isobutylsulfonyl)-N^1-{(3aS,4R,6aR)-2-[3-(trifluoromethyl)benzyl]octahydrocyclopenta[c]pyrrol-4-yl}-L-leucinamide], the IC50 stood at 1.81 µM.
For `CCC[C@@H](C(=O)N[C@@H]1CC[C@H]2CN(Cc3ccccc3)C[C@H]21)N(C)C(=O)OC(C)(C)C` [Example 233, tert-butyl(S)-1-((3aS,4R,6aR)-2-benzyloctahydrocyclopenta[c]pyrrol-4-ylamino)-1-oxopentan-2-yl(methyl)carbamate], the half-maximal inhibitory concentration (IC50) turned out to be 2.8 µM.
Turning to “N^1-[(3aR,4S,6aS)-2-(4-fluorobenzyl)octahydrocyclopenta[c]pyrrol-4-yl]-N^2-methyl-L-norvalinamide [Example 378]”, the IC50 is above 30 µM.
For `CC(C)(C)[C@H](NS(C)(=O)=O)C(=O)N[C@H]1CC[C@@H]2CN(Cc3ccc(C(F)(F)F)cc3)C[C@@H]21` [Example 520, 3-methyl-N^2-(methylsulfonyl)-N^1-{(3aR,4S,6aS)-2-[4-(trifluoromethyl)benzyl]octahydrocyclopenta[c]pyrrol-4-yl}-L-valinamide], the 50% inhibitory concentration (IC50) was 12.8 µM.

The record behind these values is patent US8691865B2 (AbbVie Inc., priority 2008, dated 2014).
